System: ghost pepper ACS1
Assay: HPLC-based method to measure the activity of ghost pepper ACS1 against carboxylic acids
Format: biochemical, ghost chili pepper
Settings: for ACS1 activity with 8-methyl-trans-6-nonenoic acid or 8-methylnonanoic acid as a substrate (FIG. 9): HPLC profiles of enzymatic products, 6E compared with 8M; for activities of ACS1 against various carboxylic acids (FIG. 8): 200 μM carboxylic acids as substrate, 30 min, acyl-CoA formation by HPLC at 257 nm, 100 mM Tri buffer, pH8.0 (FIG. 8 legend)
Method: C2, acetic acid; C4, butyric acid; C6, hexanoic acid, C8,caprylic acid; C10, capric acid; C12, lauric acid; C14, myristic acid; C16, palmitic acid; C18, stearic acid. The assay was performed in 100 mM Tri buffer, pH8.0.
Applicants used an HPLC-based method to measure the activity of ghost pepper ACS1 (Chen et al., 2011). Briefly, reaction mixtures (400 μL) contained 0.1 M Tris-HCl, […], 2 mM DTT, 5 mM ATP, 10 mM MgCl2, 0.5 mM CoA, 0.1% Triton and 200 μM carboxylic acids. The reaction was initiated by adding 20 μl of purified enzyme and stopped after 30 min by addition of 20 μl al acetic acid. HPLC was performed with Dionex-UltiMate® 3000 LC Systems (Thermo Scientific) using an Acclaim® 120 C18 reversed-phase column (Thermo Scientific; 3 μ, 120 Å, 150×3 mm). The mobile phase consisted of solvent A (0.1% trifluoroacetic acid) and solvent B (acetonitrile). The gradient elution procedure was as follows: 0 to 5 min, 5% of B; 5 to 9 min, a linear gradient from 5 to 80% of B; 9 to 11 min, 80% of B; 11 to 12 min, 5% of B. The flow rate was 0.6 ml/min. The diode array detector collected data in the 200- to 400-nm range. For detection and quantification of substrate and products, peak areas were measured at 257 nm.

SMILES | ACS1 activity with 8-methyl-trans-6-nonenoic acid or 8-methylnonanoic acid as a substrate (FIG. 9) | activities of ACS1 against various carboxylic acids (FIG. 8)
CC(C)/C=C/CCCCC(=O)O [6E, 8-methyl-trans-6-nonenoic acid] | higher activity | –
CC(C)CCCCCCC(=O)O [8M, 8-methylnonanoic acid] | showed activities | –
CC(=O)O [acetic acid] | – | did not show any activity
CCCC(=O)O [butyric acid] | – | did not show any activity
CCCCCCCCCC(=O)O [capric acid] | – | highest activity

From patent publication US10392643B2, “Methods of using acyl-CoA synthetase for biosynthetic production of acyl-CoAs” (Conagen Inc., priority 2013, dated 2019)
